pKd: −log10 of the molar value.
biological target: T1, JAK2 (JH1 domain-catalytic, Y1007F,Y1008F) kinase (Homo sapiens, UniProt O60674, Y1007F/Y1008F); assay: JAK2 Binding Assay (JAK2 JH1 Domain Binding Assay); conditions: JAK2 JH1 domain binding, qPCR detection; read-out: JAK2 Kd
T1 construct: made in house; host or cells: transiently transfected HEK293 cells
T1 sequence (O60674 849-1124 Y1007F/Y1008F limits assumed): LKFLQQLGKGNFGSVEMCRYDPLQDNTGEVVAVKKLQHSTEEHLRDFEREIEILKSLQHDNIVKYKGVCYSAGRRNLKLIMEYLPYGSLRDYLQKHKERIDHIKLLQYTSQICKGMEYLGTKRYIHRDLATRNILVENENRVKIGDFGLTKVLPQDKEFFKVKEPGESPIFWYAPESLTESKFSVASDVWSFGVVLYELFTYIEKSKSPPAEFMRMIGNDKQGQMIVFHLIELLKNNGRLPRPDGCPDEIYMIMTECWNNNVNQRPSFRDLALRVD

Row | Structure (SMILES) | pKd
1 | CC(=O)Nc1cc(Oc2cnc3nc(Nc4cc(N5CCCC5)nc(C(F)(F)F)c4)n(C)c3c2Cl)ccn1 [Example I-111, N-(4-((7-chloro-1-methyl-2-((2-(pyrrolidin-1-yl)-6-(trifluoromethyl)pyridin-4-yl)amino)-1H-imidazo[4,5-b]pyridin-6-yl)oxy)pyridin-2-yl)acetamide] | 6.00 to 7.30
2 | Cn1c(Nc2cc3n(n2)CCC32CCC2)nc2ncc(Oc3ccnc(NC(=O)O[C@H]4CCOC4)c3)c(C#N)c21 [Example I-120, (S)-tetrahydrofuran-3-yl(4-((7-cyano-2-((5′,6′-dihydrospiro[cyclobutane-1,4′-pyrrolo[1,2-b]pyrazol]-2′-yl)amino)-1-methyl-1H-imidazo[4,5-b]pyridin-6-yl)oxy)pyridin-2-yl)carbamate] | > 8.00
3 | Cn1c(Nc2cc3n(n2)CCC32CCC2)nc2ncc(Oc3ccnc(NC(=O)O[C@@H]4CCOC4)c3)c(C#N)c21 [Example I-121, (R)-tetrahydrofuran-3-yl (4-((7-cyano-2-((5′,6′-dihydrospiro[cyclobutane-1,4′-pyrrolo[1,2-b]pyrazol]-2′-yl)amino)-1-methyl-1H-imidazo[4,5-b]pyridin-6-yl)oxy)pyridin-2-yl)carbamate] | > 8.00
4 | Cn1cc(C(F)(F)F)cc(Nc2nc3ncc(Oc4ccnc(NC(=O)NC5COC5)c4)c(C#N)c3n2C)c1=O [Example I-123, 1-(4-((7-cyano-1-methyl-2-((1-methyl-2-oxo-5-(trifluoromethyl)-1,2-dihydropyridin-3-yl)amino)-1H-imidazo[4,5-b]pyridin-6-yl)oxy)pyridin-2-yl)-3-(oxetan-3-yl)urea] | > 8.00

The remaining lines, values ahead:

Row | pKd | Structure (SMILES)
5 | > 8.00 | CC(=O)Nc1cc(Oc2cnc3nc(Nc4cc5n(n4)CCOC5(C)C)n(C)c3c2C#N)ccn1 [Example I-112, N-(4-((7-cyano-2-((4,4-dimethyl-6,7-dihydro-4H-pyrazolo[5,1-c][1,4]oxazin-2-yl)amino)-1-methyl-1H-imidazo[4,5-b]pyridin-6-yl)oxy)pyridin-2-yl)acetamide]
6 | > 8.00 | CC(=O)Nc1cc(Oc2cnc3nc(Nc4cc5n(n4)CCC54CCC4)n(C)c3c2C#N)ccn1 [Example I-113, N-(4-((7-cyano-2-((5′,6′-dihydrospiro[cyclobutane-1,4′-pyrrolo[1,2-b]pyrazol]-2′-yl)amino)-1-methyl-1H-imidazo[4,5-b]pyridin-6-yl)oxy)pyridin-2-yl)acetamide]
7 | > 8.00 | CC(=O)Nc1cc(Oc2cnc3nc(Nc4cc5n(n4)CCN5C(C)(C)C)n(C)c3c2C#N)ccn1 [Example I-115, N-(4-((2-((1-(tert-butyl)-2,3-dihydro-1H-imidazo[1,2-b]pyrazol-6-yl)amino)-7-cyano-1-methyl-1H-imidazo[4,5-b]pyridin-6-yl)oxy)pyridin-2-yl)acetamide]
8 | 7.30 to 8.00 | CC(=O)Nc1cc(Oc2cnc3nc(Nc4cc5n(n4)CCN(C)C54CC4)n(C)c3c2C#N)ccn1 [Example I-119]

test system: not listed separately; assay: Caco2 Permeability Assay; type: in vitro ADME; conditions: human, pH 7.4, Caco-2, 5 μM, read-out: Efflux Ratio (ER)
Experimental: Preparation of Caco-2 Cells: 50 μL and 25 mL of cell culture medium are added to each well of a Transwell® insert and reservoir, respectively. Then, the HTS Transwell® plates are incubated at 37° C., 5% CO2 for 1 hour before cell seeding. Caco-2 cell cells are diluted to 6.86×10^5 cells/mL with culture medium, and 50 μL of cell suspension are dispensed into the filter well of the 96-well HTS Transwell® plate. Cells are cultivated for 14-18 days in a cell culture incubator at 37° C., 5% CO2, 95% relative humidity. Cell culture medium is replaced every other day, beginning no later than 24 hours after initial plating.
Preparation of Stock Solutions: 10 mM stock solutions of test compounds are prepared in DMSO. The stock solutions of positive controls are prepared in DMSO at the concentration of 10 mM. Digoxin and propranolol are used as control compounds in this assay.
Assessment of Cell Monolayer Integrity: Medium is removed from the reservoir and each Transwell® insert and is replaced with prewarmed fresh culture medium. Transepithelial electrical resistance (TEER) across the monolayer is measured using Millicell Epithelial Volt-Ohm measuring system (Millipore, USA). The Plate is returned to the incubator once the measurement is done. The TEER value is calculated according to the following equation: TEER measurement (ohms)×Area of membrane (cm^2)=TEER value (ohm⋅cm^2). A TEER value greater than 230 ohm⋅cm^2 indicates a well-qualified Caco-2 monolayer.
Assay Procedure: The Caco-2 plate is removed from the incubator and washed twice with pre-warmed HBSS (10 mM HEPES, pH 7.4), and then incubated at 37° C. for 30 minutes. The stock solutions of control compounds are diluted in DMSO to get 1 mM solutions and then diluted with HBSS (10 mM HEPES, pH 7.4) to get 5 μM working solutions. The stock solutions of the test compounds are diluted in DMSO to get 1 mM solutions and then diluted with HBSS (10 mM HEPES and 4% BSA, pH 7.4) to get 5 μM working solutions. The final concentration of DMSO in the incubation system is 0.5%. To determine the rate of drug transport in the apical to basolateral direction. 75 μL of 5 μM working solutions of test compounds are added to the Transwell® insert (apical compartment) and the wells in the receiver plate (basolateral compartment) are filled with 235 μL of HBSS (10 mM HEPES and 4% BSA, pH 7.4). To determine the rate of drug transport in the basolateral to apical direction, 235 μL of 5 μM working solutions of test compounds are added to the receiver plate wells (basolateral compartment) and then the Transwell® inserts (apical compartment) are filled with 75 μL of HBSS (10 mM HEPES and 4% BSA, pH 7.4). Time 0 samples are prepared by transferring 50 μL of 5 μM working solution to wells of the 96-deepwell plate, followed by the addition of 200 μL cold methanol containing appropriate internal standards (IS). The plates are incubated at 37° C. for 2 hours. At the end of the incubation, 50 μL samples from donor sides (apical compartment for Ap→*Bl flux, and basolateral compartment for Bl→Ap) and receiver sides (basolateral compartment for Ap→Bl flux, and apical compartment for Bl→Ap) are transferred to wells of a new 96-well plate, followed by the addition of 4 volume of cold acetonitrile or methanol containing appropriate internal standards (IS). Samples are vortexed for 5 minutes and then centrifuged at 3,220 g for 40 minutes. An aliquot of 100 μL of the supernatant is mixed with an appropriate volume of ultra-pure water before LC-MS/MS analysis. To determine the Lucifer Yellow leakage after 2 hour transport period, stock solution of Lucifer yellow is prepared in ultra-pure water and diluted with HBSS (10 mM HEPES, pH 7.4) to reach the final concentration of 100 μM. 100 μL of the Lucifer yellow solution is added to each Transwell® insert (apical compartment), followed by filling the wells in the receiver plate (basolateral compartment) with 300 μL of HBSS (10 mM HEPES, pH 7.4). […]

Row | Structure (SMILES) | efflux ratio at 2 h, 5 μM
9 | Cn1c(Nc2cc3n(n2)CCCC3(F)F)nc2ncc(Oc3ccnc(NC(=O)N4CCC4)c3)c(C#N)c21 [Example I-30] | 2 to 5

same assay, conditions: human, pH 7.4, Caco-2, apical to basolateral, 5 μM

Row | Structure (SMILES) | Papp A→B at 2 h, 5 μM [×10⁻⁶ cm/s]
10 | Cn1c(Nc2cc3n(n2)CCCC3(F)F)nc2ncc(Oc3ccnc(NC(=O)N4CCC4)c3)c(C#N)c21 [Example I-30] | 3

Reference: patent US11970494B2, “6-heteroaryloxy benzimidazoles and azabenzimidazoles as JAK2 inhibitors” (Ajax Therapeutics, Inc., priority 2021, dated 2024)
